The data set in a line: Relaxivity of dialyzed liposomal Gd(BME-DTTA). The class given is physicochemical. To be noted: dialyzed against saline pH 7.4 with HEPES and Chelex-100. The method, then:
In this comparative example, the gadolinium complex of N^3,N^6 -bis(2'-myristoyloxyethyl)-1,8-dioxo-triethylenetetraamine-N,N,N',N'-tetraacetic acid [Gd(BME-DTTA)] was prepared and used for cardiac tissue imaging. Specifically, Gd(BME-DTTA) was synthesized and incorporated into liposomes using the procedure described in the Elgavish et al. article entitled "Fatty-acyl iminopolycarboxylates; lipophilic bifunctional contrast agents for NMR imaging", Magn. Reson. Med. 1991; Vol 22; pp. 57-67.
The liposomal Gd(BME-DTTA) was dialyzed at 4° C. for 24 hours against a saline solution (pH 7.4) that contained 0.9 weight % NaCl, 20 mmol/L HEPES, and 0.5 weight % Chelex-100 to remove any weakly bound Gd ions. […] (mmol/L)^-1.

Take “gadolinium complex of N^3,N^6 -bis(2'-myristoyloxyethyl)-1,8-dioxo-triethylenetetraamine-N,N,N',N'-tetraacetic acid [Gd(BME-DTTA)]”: the relaxivity is listed as 27.1±0.3 s^-1. (mmol/L)^-1.

The record behind these values is US5804164A, “Water-soluble lipophilic contrast agents” (Research Corporation Technologies, Inc., priority 1996, dated 1998).
